Experimental data from US10973784B2, “Compositions and methods for treating Alzheimer's disease and Parkinson's disease” (Biotie Therapies, Inc., priority 2016, dated 2021).
“And” between values parts separate entries of the source, which are not always exact repeats. Equal values may be shown once. Read-outs that look alike come from different tables or passages of the source.

Assay: Pharmacokinetic analysis of SYN120 tablets, single oral dose (Example 8)
Assay type: in vivo, human
Conditions: for half-life / Tmax / AUC(0-t) / AUC(0-inf) / Cmax: human, plasma
Procedure: Pharmacokinetic (PK) analysis was performed on 42 subjects (36 males; 6 females) who received SYN120 oral tablets. In this study, subjects received a single oral dose of SYN120 at one of the following doses: 2 mg; 10 mg; 30 mg; 100 mg; 300 mg; and 600 mg. The SYN120 oral tablets used in this study were formulated for immediate release at tablet strengths of 2 mg, 10 mg, and 50 mg. The tablets were formulated using lactose monohydrate, corn starch, sodium starch glycolate, povidone, sodium lauryl sulfate, magnesium stearate, and the coating agent Opadry Yellow. Blood samples were collected at predose and 0.5, 1, 1.5, 2, 3, 4, 6, 8, 12, 16, 24, 32, 36, 48, and 72 hours postdose. During the treatments at 100 mg and higher, the protocol was amended to include an additional blood sample on Study Day 7 (nominal time of 151 hours). Following oral administration, SYN120 absorption was rapid and plasma levels were measurable in all subjects at the first time point (0.5 hours).
Table 14 below provides a summary of the mean PK parameters of plasma SYN120 for all doses.

[1] = female, oral, 100 mg single dose, females, arithmetic mean
[2] = female, single oral dose 100 mg (females), Cohort E, geometric mean
[3] = single oral dose 2 mg, Cohort A, geometric mean
[4] = single oral dose 10 mg, Cohort B, geometric mean
[5] = single oral dose 30 mg, Cohort C, geometric mean
[6] = single oral dose 300 mg, Cohort F, geometric mean
[7] = single oral dose 600 mg, Cohort G, geometric mean
[8] = male, oral, 100 mg single dose, males, arithmetic mean
[9] = male, single oral dose 100 mg (males), Cohort D, geometric mean
[10] = single oral dose 2 mg, Cohort A, arithmetic mean ±SD
[11] = single oral dose 10 mg, Cohort B, arithmetic mean ±SD
[12] = single oral dose 30 mg, Cohort C, arithmetic mean ±SD
[13] = single oral dose 100 mg (females), Cohort E, arithmetic mean ±SD
[14] = single oral dose 100 mg (males), Cohort D, arithmetic mean ±SD
[15] = single oral dose 300 mg, Cohort F, arithmetic mean ±SD
[16] = single oral dose 600 mg, Cohort G, arithmetic mean ±SD

With `NC(=O)NC[C@@H]1CCCc2cc(S(=O)(=O)c3cccc(F)c3)ccc21` [SYN120] the half-life (both sexes, oral, range across single-dose treatment groups, read-out: mean apparent elimination half-life) was 8.45 to 12.4 h, the Tmax (both sexes, oral, single doses of 100 mg and above, read-out: Tmax estimates) was ~4 h and the AUC(0-t) (female, oral, 100 mg, 100 mg single dose, females, arithmetic mean, read-out: AUC0-24) was 4670 ± 2990 ng·h/mL. It also gave an AUC(0-t) (female, oral, 100 mg, 100 mg single dose, females, arithmetic mean, read-out: AUC0-t) of 5960 ± 3650 ng·h/mL, an AUC(0-inf) [1] of 5980 ± 3660 ng·h/mL and a Cmax [1] of 532 ± 218 ng/mL. It also gave an AUC(0-t) (female, po, 100 mg, single oral dose 100 mg (females), Cohort E, geometric mean, read-out: AUC0-24) of 4000 ng·h/mL, an AUC(0-t) (female, po, 100 mg, single oral dose 100 mg (females), Cohort E, geometric mean, read-out: AUC0-t) of 5100 ng·h/mL and a half-life (female, single oral dose 100 mg (females), Cohort E, arithmetic mean ±SD, read-out: t1/2 (converted)) of 12.4 h. It also gave an AUC(0-inf) [2] of 5120 ng·h/mL, a Cmax [2] of 498 ng/mL and a Tmax (female, single oral dose 100 mg (females), Cohort E, median, read-out: Tmax) of 2.51 h. The half-life (oral, general statement, read-out: elimination half-life (t1/2)) was 8 to 12 h, the Tmax (oral, single dose 2 to 30 mg, on average, read-out: Tmax) was ~2 h and the AUC(0-t) (po, 2 mg, single oral dose 2 mg, Cohort A, geometric mean, read-out: AUC0-24) was 118 ng·h/mL. For the same compound, the AUC(0-t) (po, 2 mg, single oral dose 2 mg, Cohort A, geometric mean, read-out: AUC0-t) was 139 ng·h/mL, the AUC(0-t) (po, 10 mg, single oral dose 10 mg, Cohort B, geometric mean, read-out: AUC0-24) was 351 ng·h/mL and the AUC(0-t) (po, 10 mg, single oral dose 10 mg, Cohort B, geometric mean, read-out: AUC0-t) was 384 ng·h/mL. For the same compound, the AUC(0-t) (po, 30 mg, single oral dose 30 mg, Cohort C, geometric mean, read-out: AUC0-24) was 1540 ng·h/mL, the AUC(0-t) (po, 30 mg, single oral dose 30 mg, Cohort C, geometric mean, read-out: AUC0-t) was 1750 ng·h/mL and the AUC(0-t) (po, 300 mg, single oral dose 300 mg, Cohort F, geometric mean, read-out: AUC0-24) was 21300 ng·h/mL. It also gave an AUC(0-t) (po, 300 mg, single oral dose 300 mg, Cohort F, geometric mean, read-out: AUC0-t) of 27400 ng·h/mL, an AUC(0-t) (po, 600 mg, single oral dose 600 mg, Cohort G, geometric mean, read-out: AUC0-24) of 27600 ng·h/mL and an AUC(0-t) (po, 600 mg, single oral dose 600 mg, Cohort G, geometric mean, read-out: AUC0-t) of 42500 ng·h/mL. The half-life (single oral dose 2 mg, Cohort A, arithmetic mean ±SD, read-out: t1/2 (converted)) was 11.4 ± 5.11 h, the AUC(0-inf) [3] was 146 ng·h/mL and the Cmax [3] was 11.8 ng/mL. The Tmax (single oral dose 2 mg, Cohort A, median, read-out: Tmax) was 2.02 h, the half-life (single oral dose 10 mg, Cohort B, arithmetic mean ±SD, read-out: t1/2 (converted)) was 8.45 ± 2.31 h and the AUC(0-inf) [4] was 389 ng·h/mL. It also gave a Cmax [4] of 48.7 ng/mL, a Tmax (single oral dose 10 mg, Cohort B, median, read-out: Tmax) of 1.76 h and a half-life (single oral dose 30 mg, Cohort C, arithmetic mean ±SD, read-out: t1/2 (converted)) of 8.92 ± 1.39 h. The AUC(0-inf) [5] was 1770 ng·h/mL, the Cmax [5] was 179 ng/mL and the Tmax (single oral dose 30 mg, Cohort C, median, read-out: Tmax) was 2.26 h. For the same compound, the half-life (single oral dose 300 mg, Cohort F, arithmetic mean ±SD, read-out: t1/2 (converted)) was 9.58 ± 3.46 h, the AUC(0-inf) [6] was 27400 ng·h/mL and the Cmax [6] was 1730 ng/mL. The Tmax (single oral dose 300 mg, Cohort F, median, read-out: Tmax) was 3.53 h, the half-life (single oral dose 600 mg, Cohort G, arithmetic mean ±SD, read-out: t1/2 (converted)) was 12 ± 4.81 h and the AUC(0-inf) [7] was 42900 ng·h/mL. The Cmax [7] was 2080 ng/mL, the Tmax (single oral dose 600 mg, Cohort G, median, read-out: Tmax) was 4.51 h and the AUC(0-t) (male, oral, 100 mg, 100 mg single dose, males, arithmetic mean, read-out: AUC0-24) was 6470 ± 3330 ng·h/mL. For the same compound, the AUC(0-t) (male, oral, 100 mg, 100 mg single dose, males, arithmetic mean, read-out: AUC0-t) was 7980 ± 4800 ng·h/mL, the AUC(0-inf) [8] was 8060 ± 4880 ng·h/mL and the Cmax [8] was 623 ± 180 ng/mL. It also gave an AUC(0-t) (male, po, 100 mg, single oral dose 100 mg (males), Cohort D, geometric mean, read-out: AUC0-24) of 5870 ng·h/mL, an AUC(0-t) (male, po, 100 mg, single oral dose 100 mg (males), Cohort D, geometric mean, read-out: AUC0-t) of 7010 ng·h/mL and a half-life (male, single oral dose 100 mg (males), Cohort D, arithmetic mean ±SD, read-out: t1/2 (converted)) of 11 h. It also gave an AUC(0-inf) [9] of 7060 ng·h/mL, a Cmax [9] of 604 ng/mL and a Tmax (male, single oral dose 100 mg (males), Cohort D, median, read-out: Tmax) of 4 h. It also gave a CL/F [10] of 18.8 ± 15.2 L/h, a Vs/F [10] of 264 ± 191 L and a CL/F [11] of 29.0 ± 15.0 L/h. It also gave a Vs/F [11] of 379 ± 283 L, a CL/F [12] of 19.2 ± 9.58 L/h and a Vs/F [12] of 253 ± 149 L. The CL/F [13] was 22.5 L/h and 22.5 ± 11.9 L/h, the Vs/F [13] was 448 L and 448 ± 500 L and the CL/F [14] was 15.8 L/h and 15.8 ± 7.56 L/h. For the same compound, the Vs/F [14] was 227 L and 227 ± 94.2 L, the CL/F [15] was 11.7 ± 4.81 L/h and the Vs/F [15] was 154 ± 57.3 L. It also gave a CL/F [16] of 15.7 ± 7.96 L/h and a Vs/F [16] of 246 ± 97.6 L.
